According to patent US20130317052A1, “QUINOLINE DERIVATIVE COMPOUND, METHOD FOR PREPARING SAME, AND PHARMACEUTICAL COMPOSITION CONTAINING SAME” (Dong-A ST Co., Ltd., priority 2010, published 2013):

Assays:
serotonin-1B receptor = molecular target: T1, serotonin-1B receptor (Rattus norvegicus, UniProt P28564); experiment: Assay for affinity for serotonin-1B receptor: competitive inhibition of [125I]cyanopindolol binding to rat cerebral cortex membranes; conditions: 10 μM compound, 10 pM [125I]cyanopindolol, mean of two experiments
T1 construct: cell membranes of the cerebral cortex excised from male Winstar rats; from tissue; host or cells: rat cerebral cortex membranes
Experimental: Compounds of the present invention were examined for affinity for the serotonin-1B receptor which can exert a relaxation effect on the stomach to relieve impaired gastric accommodation of functional dyspepsia patients in response to an agonist.
In a Tris-HCl buffer (50 mM Tris-HCl, pH 7.4, 120 mM NaCl, 5 mM KCl, 2 mM CaCl2, 1 mM MgCl2), 4 mg of cell membranes of the cerebral cortex excised from male Winstar rats, each weighing 175±25 g, was incubated at 37° C. for 1.5 hrs with 10 pM of ^125[I] cyanopindolol (PerkinElmer, 100 μCi) and 10 μM of the compound of interest of the present invention per well. After completion of the incubation, the incubation mixture was filtered through Whatman GF/B filter (unifilter-96, Lot: 6005177, PerkinElmer) to separate ligand-bound receptors. These bound receptors were washed three times with 5 mL of a Tris-HCl buffer. Then, 10 mL of a scintillation cocktail (Lot: 03999, Fluka) was added and reacted for 16 hrs or longer to measure radiation activity using a beta-counter (Packcard) in order to calculate the quantity of ^125[I] cyanopindolol bound to the receptor.
Meanwhile, 10 μM of serotonin (H9523, Sigma) was incubated in the presence of 10 pM of ^125[I] cyanopindolol to determine a nonspecific binding value. The experiment was independently carried out twice, and receptor affinity was calculated using the following Equation 2. […]

[1] = Gastric emptying effect on normal rat, semi-solid test meal; type: in vivo, Sprague-Dawley rats; conditions: for Gastric Emptying (%): 45 min before test meal, stomach weighed 35 min after meal
Experimental: Gastric emptying activity of the compounds of the present invention was examined in the following experiment.
Sprague-Dawley rats, each weighing 200˜250 g, were acclimated for one week at a temperature of 22˜24° C. and a humidity of 60-80% while a standard diet and water were provided, and then were divided into groups according to weight. Thereafter, they were starved for 24 hrs before an experiment while water was provided. From 3 hrs before the experiment, no more water was provided. […] For control 1, only 1 mL of a 3% hydroxypropylmethyl cellulose solution was used while sisapride was orally administered at a dose of 1 mg/kg in 1 mL of a 3% hydroxypropylmethyl cellulose to control 2.
After 45 min, a semi-solid test meal prepared by mashing feeds in water, was orally administered in an amount of 2 mL to each rat. After 35 min, the SD rats were killed, and the stomach containing the semi-solid test meal was excised, and weighed. Subsequently, the stomach was washed with distilled water to remove the gut content, dried, and weighed again, in order to calculate the weight of the semi-solid test meal left in the gut.
Gastric Emptying(%)=[1−(weight of semi-solid test meal left in gut/weight of semi-solid test meal at 0-time)]×100 [Equation 3]
(weight of semi-solid test meal at 0-time means weight of the semi-solid test meal left in the rat killed immediately after the administration of the semi-solid test meal)

[2] = molecular target: T2, dopamine-D2 receptor (human dopamine D2s) (Homo sapiens, UniProt P14416); experiment: Assay for affinity for dopamine receptor: competitive inhibition of [3H]spiperone binding; conditions: 10 μM compound; 0.16 nM [3H]spiperone; CHO cells transfected with human dopamine D2s gene; mean of two experiments
T2 construct: expressed in transfected cells; host or cells: CHO cells
Experimental: Affinity of the compounds of the present invention for the dopamine-D2 receptor, which is found in the wall of the gastric tract of mammals and inhibits gastrointestinal motility, was determined by measuring competitive inhibition against the binding to the receptor of a radio-labeled ligand which is known for its affinity for the receptor. In this regard, the experiment was performed according to the method described in [Heys G et al. Mol Endocrinol. 6:920, 1992] and [Grandy D K et al. Proc Natl Acad Sci USA. 86:9762, 1989].
In tris-HCl buffer ([…], pH 7.4, 120 mM NaCl, 5 mM KCl, 2 mM CaCl2, 1 mM MgCl2) 150 μg of Chinese hamster ovary (CHO) cells transfected with a human dopamine D2s gene were incubated at 25° C. for 120 min with 0.16 nM of tritium Spiperone (^3[H] Spiperon [NEN, 250 μCi]) and 10 μM of the compound of interest of the present invention. After completion of the reaction, the reaction mixture was filtered through Whatman GF/B filter (unifilter-96, Lot: 6005177, PerkinElmer) to separate ligand-bound receptors. These bound receptors were washed three times with a Tris-HCl buffer. Then 10 mL of a scintillation cocktail (Lot: 03999, Fluka) was added and reacted for 16 hrs or longer to measure radiation activity using a beta-counter (Packcard) in order to calculate the quantity of tritium spiperone bound to the receptor. Meanwhile, 10 μM of Haloperidol (H1512, Sigma) was incubated in the presence of 0.16 nM tritium Spiperone to determine a nonspecific binding value. The experiment was independently carried out twice, and receptor affinity was calculated using the following Equation 1.
Receptor Affinity(%)={(Total CPM−Nonspecific Binding CPM−CPM of tritium Spiperone remaining after addition of interest compound of the present invention)/(Total CPM−Nonspecific Binding CPM)}×100 Equation 1
(CPM: counter per minute)

T2 sequence (P14416 1-414 isoform P14416-2): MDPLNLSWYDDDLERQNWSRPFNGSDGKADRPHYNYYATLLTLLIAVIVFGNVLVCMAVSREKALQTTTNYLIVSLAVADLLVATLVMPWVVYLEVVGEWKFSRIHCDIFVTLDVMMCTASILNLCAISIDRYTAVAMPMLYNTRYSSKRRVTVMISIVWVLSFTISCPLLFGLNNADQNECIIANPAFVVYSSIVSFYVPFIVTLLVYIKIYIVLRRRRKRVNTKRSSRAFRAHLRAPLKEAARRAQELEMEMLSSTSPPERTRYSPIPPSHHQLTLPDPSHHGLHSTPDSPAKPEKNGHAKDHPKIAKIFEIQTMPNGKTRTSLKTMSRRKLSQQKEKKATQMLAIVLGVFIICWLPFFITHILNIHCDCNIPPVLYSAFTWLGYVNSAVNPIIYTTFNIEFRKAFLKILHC
T1 sequence (P28564 whole entry): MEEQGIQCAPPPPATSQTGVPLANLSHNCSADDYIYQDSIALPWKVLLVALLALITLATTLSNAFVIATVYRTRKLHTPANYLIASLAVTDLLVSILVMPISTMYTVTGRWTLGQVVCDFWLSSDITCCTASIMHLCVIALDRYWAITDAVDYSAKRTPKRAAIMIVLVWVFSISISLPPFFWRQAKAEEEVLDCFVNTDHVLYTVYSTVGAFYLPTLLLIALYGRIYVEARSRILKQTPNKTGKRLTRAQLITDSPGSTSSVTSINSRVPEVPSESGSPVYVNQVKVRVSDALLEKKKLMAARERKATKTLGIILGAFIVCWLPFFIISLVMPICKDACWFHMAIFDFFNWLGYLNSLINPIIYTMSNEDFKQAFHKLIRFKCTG

| SMILES | Affinity (%) (serotonin-1B receptor) | Gastric Emptying (%) ([1]; 10 μg/kg oral) | increase of gastric emptying compared to control 1 (no drug) ([1]; 10 μg/kg oral, normal rat) | Affinity (%) [2] [%] | Gastric Emptying (%) ([1]; 10 mg/kg oral (Table 3)) |
| --- | --- | --- | --- | --- | --- |
| COc1cc2c(cc1Oc1cc3c(cc1OC)-c1c(OC)c(OC)cc4ccnc(c14)C3=O)CCN1Cc3c(ccc(OC)c3OC)C[C@@H]21 [Compound of Example 1, (S)-1,2,10-Trimethoxy-9-(2,9,10-trimethoxy-5,8,13,13a-tetrahydro-6H-isoquino[3,2-a]isoquinolin-3-yloxy)-dibenzo[de,g]quinolin-7-one] | 61 | 62.3 | roughly two-fold | 91 |  |
| COc1cc2c(cc1Oc1cc3c(cc1OC)CC[n+]1cc4c(OC)c(OC)ccc4cc1-3)C[C@@H]1NCCc3cc(OC)c(OC)c-2c31 [Compound of Example 2, (S)-3,9,10-Trimethoxy-2-(1,2,10-trimethoxy-5,6,6a,7-tetrahydro-4H-dibenzo[de,g]quinolin-9-yloxy)-5,6-dihydro-isoquino[3,2-a]isoquinolinylium] | 35 | 47.3 |  | 25 |  |
| COc1cc(N)c(Cl)cc1C(=O)NC1CCN(CCCOc2ccc(F)cc2)CC1OC (stereo not drawn) [Control 2, sisapride, reference compound] |  |  |  |  | 68.9 |
| COc1ccc(C(=O)NCc2ccc(OCCN(C)C)cc2)cc1OC [Itopride, reference compound] |  |  |  | 75 |  |
